One compound from US11679111B2, “Fatty acid synthase inhibitors” (priority 2016, dated 2023) can be followed below.

The test system of data set [1] is FASN activity in HepG2 cells. Put plainly: [3H] glucose and acetate incorporation into lipids in HepG2 cells. The format is cell-based. The note with it: for EC50 / IC50: Homo sapiens. As to the method:
To specifically identify inhibitors of FASN targeting its nucleotide binding pockets Cibacron blue Sepharose was utilized. This medium has been used previously to purify NAD and NADP binding proteins from crude tissues extracts (Miyaguchi et al., 2011; Muratsubaki et al., 1994). FASN enriched extract from lactating pig mammary gland was bound to the resin and labeled with cysteine reactive fluorescein. […] Next, the molecules were tested for their ability to inhibit FASN activity in a HepG2 cell based assay that measured the incorporation of ^3H glucose into lipids (FIG. 1B and FIG. 9).
Incorporation of radiolabeled glucose or acetate in total lipids was measured according to published methods (Haystead and Hardie, 1986). HepG2 cells (80% confluent in 12 wells plates) were starved overnight in MEM Alpha, the medium was then changed with DMEM medium containing 0.1 g/L glucose 10% FBS and 5 μM insulin and 1 μCi 3-[^3H] D-glucose or 1 μCi [^3H]-acetate in addition to different concentrations of each compound. After incubation for 1 hour at 37° C., 5% CO2, the cells were washed with ice cold PBS and detached by treating with 100 μl trypsin for 10 min then 1 ml of ice cold PBS was added. The cells suspension was then sonicated for 3 times in 30 seconds intervals and kept on ice. From each well 1 ml of cell lysate was added to a 4 ml scintillation vial and 2 ml of MicroScint-E was added. The vials were mixed thoroughly then centrifuged for 30 min at 3000 rpm and the ^3H radioactivity was measured by liquid scintillation counting.

For data set [2], the system named is MMTV-Neu model of HER2+ breast cancer. The data set can be described thus: Efficacy in MMTV-Neu model of HER2+ breast cancer. The format is in vivo, mice. The note with it: 30 pmol/kg IP biweekly, vehicle 29 days.
Another data set deals with MCF10A cells. Put plainly: Proliferation assay (Hoechst DNA content), non-tumorigenic cell line. The format is cell-based. As to the method:
MCF10A (5,000 cells/well), MCF7 (7,500 cells/well), MDA-MB-468 (5,000 cells/well), BT474 (7,500 cells/well), and SKBR3 (5,000 cells/well) were seeded in 96 well plates with 10% FBS 4 g/L glucose DMEM media except for MCF10A which was DMEM/F12 media. After 24 hours, cells were treated with different concentration of HS-106 or C75. Every 24 hours for five days, media from one of the plates was removed and plate was frozen at −80° C. After collecting all the time points, to each well 100 μl ddH2O was add and the plates were frozen again. Then 100 μI of Hoechst 33258 solution made in TNE buffer (1 μl from Hoechst stock (1 mg/ml in 1:4 DMSO:H20) in 1 ml of TNE (which contains 10 mM Tris, 2M NaCl and 1 mM Na2EDTA) and fluorescence was measured at Ex/Em: 355/460.

Data set [3] in a line: Cellular toxicity / viability in the TZM-bl model. The note with it: human, TZM-bl cells. The text has this:
(§1) The data presented are mean values (±SD) from three independent experiments. ** Indicates p<0.0001, treatment versus DMSO-treated control (Students t-test).

The test system of a further data set is TZM-bl cells. The data set can be described thus: Cellular toxicity / viability in the TZM-bl model.
Source text: as §1

Read-outs that look alike come from different tables or passages of the source.

For orientation: CC50 means the concentration that lowers cell viability or growth by half. As to `Cc1sc2ncnc(NC3CCN(Cc4ccccc4)C3)c2c1C` (racemic) [HS-106, N-(1-benzylpyrrolidin-3-yI)-5,6-dimethylthieno[2,3-d]pyrimidin-4-amine], the “inhibition of tritiated acetate incorporation into lipids” value in data set [1] (FIG. 2D, cell line not stated) was “inhibit the incorporation of tritiated acetate into lipids”. Moreover, the “rank among the 13 molecules tested, 3H glucose incorporation into lipids” value in data set [1] (HepG2 cells) was “most potent inhibitor”. In addition, the EC50 is 147 nM in data set [1] (HepG2, read-out: EC50, blockade of acetate incorporation into total lipids) and 213 nM in data set [1] (HepG2, read-out: EC50, blockade of glucose incorporation into total lipids). The IC50 in data set [1] (HepG2, read-out: IC50, incorporation of tritiated acetate into lipids) is 147 nM; in data set [1] (HepG2, read-out: IC50, incorporation of tritiated glucose into lipids), 213 nM. The median survival in data set [2] is listed as 63 days. Further, in the data set with MCF10A cells, the inhibition of proliferation entry is “lower activity”. Moreover, the 50% cytotoxic concentration (CC50) in data set [3] was found to be 10000 nM. Further, in the data set with TZM-bl cells, the “TZM-bl cell viability (MTT-activity)” value is recorded as “without significant effects on TZM-bl cell viability”.
